Where “and” joins values, the source holds several entries; their conditions need not be identical. Identical values can stand only once. Like-named read-outs stand apart in the source and are kept apart here.
Experiments:
dog = settings: intravenous injection, compared with (R,S)-isoproterenol; cited from earlier work
[1] = target: T1, bovine serum albumin (BSA) with D-ribose (Bos taurus, UniProt P02769); test: Maillard fluorescence-based anti-glycation assay; settings: in vitro anti-glycation; for IC50: BSA 0.075 mM, D-ribose 50 mM, 37° C., 5 days; for Imax: maximum inhibition of Maillard fluorescence
Method: (§3) The Maillard fluorescence-based assay was used to screen anti-glycation activity of approximately 1,300 drugs or drug candidates. […] Briefly the assay involved incubation of bovine serum albumin (BSA) (0.075 mM) with D-ribose (50 mM) and an assay compound (0.47, 4.7 and 47 μg/mL). Solutions were incubated at 37° C. for 5 days.

human eye = settings: cited from earlier work
[2] = better than epinephrine; cited from earlier work
[3] = target: T1, bovine serum albumin (BSA) with D-ribose; test: biochemical
Method: as §3

[4] = Body weight of non-diabetic and diabetic rats; assay type: in vivo, rat
Method: (§1) Eye drops or vehicle were administered twice a day, seven days a week, on the cornea of different groups of rats, with a minimum interval of 7 h between the two treatments. To promote weight gain and limit hyperglycemia, diabetic rats were injected sub-cutaneously with 2 IU ultralente insulin (Humulin, Eli Lilly, Toronto, ON, Canada) three times a week. Animal weights were monitored every week.

PC12 cells [5] = test: Anti-oxidant activity against oxidative stress by H2O2 at the cellular level; assay type: cell-based; settings: 10-100 μM; H2O2 killed over 80% of the PC12 cells
Description: Glycation includes oxidative processes and is closely related to oxidative stress. […] The oxidative stress by H2O2 induces apoptosis in vitro and in vivo, and effective anti-oxidants such as N-acetyl-cysteine reduces the oxidative stress and protects the cells from the apoptosis.

human eyes = settings: cited from earlier work
[6] = large intravenous dose; cited from earlier work
PC12 cells [7] = test: Cytotoxicity in PC12 cells (MTT assay); assay type: cell-based
Method: The cytotoxicity of (S)-isoproterenol dipivalate was measured by using PC12 cells. […] PC12 cells were seeded onto rat-tail collagen coated 96-well plates at a density of 2×10^4 cells/well and cultivated for one day. On the day of the experiment, dilutions of (S)-isoproterenol dipivalate ranging from 100 μM to 10 mM were prepared in complete medium. […] At the end of the incubation times, the medium was aspirated and 100 μL of a solution of MTT (3-(4,5-dimethylthiazol-2-yl)-2,5-diphenyltetrazolium; 0.2 mg/ml in complete medium) was added to the cells. After incubation at 37° C. for 2 hours, MTT was removed and the colored formazan was dissolved in dimethyl sulfoxide (DMSO) (½ hour at 37° C.). Reduction was measured by colorimetric detection (595 nm) of the blue insoluble formazan product. This assay provides an estimate of the number of functioning mitochondria present in the cells; i.e. the quantity of formazan product is directly proportional to the number of metabolically active cells in the culture. The viability of PC12 cells in each well was presented as percentage of control cells.

[8] = tested on: Streptozotocin-injected diabetic rats; test: Diabetic cataract initiation and progression in Streptozotocin-injected rats, eye drops; assay type: in vivo, rat; settings: for Time entered in level 4 / Time stayed in level 0 / Time stayed in level 1 / Time stayed in level 2 / Time stayed in level 3: individual diabetic rats with drug; for Time entered in level 4 / Time stayed in level 0 / Time stayed in level 1 / Time stayed in level 2 / Time stayed in level 3 / Time stayed in level 0 (cataract initiation), Av ± STD / Time stayed in level 1, Av ± STD / Time stayed in level 2, Av ± STD / Time stayed in level 3, Av ± STD: hydrochloride; for Time stayed in level 0 (cataract initiation), Av ± STD / Time stayed in level 1, Av ± STD / Time stayed in level 2, Av ± STD / Time stayed in level 3, Av ± STD: diabetic rats with drug, n=17, both eyes; for Time stayed in level 0 (cataract initiation), Av ± STD: 0.10% eye drop twice a day
Description: A rat model was used to study the effect of (S)-isoproterenol on diabetic cataract, that of streptozotocin-injection to induce diabetes by destroying the β-cells of the pancreas. This model has been widely used to study diabetes-related pathological events and their possible treatments (Dagher et al., 2004; Ben-nun et al., 2004; Chung et al., 2005). The rat model has an advantage of rapid formation of diabetic cataract such that initial cataract was observed as early as 8-9 weeks in the majority of the control diabetic rats. Two-month-old male Sprague-Dawley rats were purchased from Charles River, Canada. They were housed in the Biotechnology Research Institute (BRI)—animal facility. Housing and all experimental manipulations were approved by the BRI Animal Care Committee that functions under the guidelines of the Canadian Council of Animal Care.
(§2) The pH of the eye drop was adjusted to 5.5 with 1N—HCl. […] The eye drop was freshly prepared every month and was stored at 4° C. […] The size of each eye drop was 50 μL.
Diabetes was induced in male Sprague-Dawley rats weighing approximately 200 to 250 g by a single intraperitoneal injection of the beta-cell toxin, Streptozotocin (STZ) (Sigma, St. Louis, […].), at a dose of 60 mg/kg body weight in 0.1M citrate buffer pH 4.5. Non-diabetic control rats received citrate buffer only.
as §1
Cataract progression was monitored by visual examination, twice a week. A scoring system was devised to evaluate the severity of the cataract. A healthy eye was given a score of 0 (normal level); when a faint pinkish hue was discernable (level 1), cataract formation was in its earliest stage of being visually detected and this stage was given a score of 1. When a white film is clearly detectable (level 2), a score of 2 was assigned. When the film covers the entire eye, but the pupils are still visible (level 3), a score of 3 was assigned, and finally the cataract was considered most severe (score of 4) when the pupil was not detected due to the formation of the white film (level 4).

[9] = Storage stability of the eye drop (HPLC profiles); assay type: physicochemical; settings: eye drop pH 5.5, one month of storage at 4° C.
Method: as §2

[10] = tested on: human corneal epithelial cells (HCEC cells); settings: human cornea epithelial cells, under the microscope
Method: HCEC cells were grown in EpiLife medium supplemented with human corneal growth supplements (HCGS; Cascade Biologics). The cells were maintained at 37° C. in a humidified atmosphere containing 5% CO2 and the medium was changed every other day. HCEC cells were seeded onto 96-well plates at a density of approximately 10^3 cells/well and cultivated for one day. […] The medium was aspirated and the treatments were applied to the cells (in triplicates) for different incubation times (5 minutes to 2 hours and 24 hours). At the end of the incubation times, the survival of the cells was visually examined under microscope.

[11] = pKa of the aromatic dihydroxyl group; assay type: physicochemical
[12] = 2.47% instilled to normal human eyes (Bonomi 1964)

T1 sequence (P02769 25-607): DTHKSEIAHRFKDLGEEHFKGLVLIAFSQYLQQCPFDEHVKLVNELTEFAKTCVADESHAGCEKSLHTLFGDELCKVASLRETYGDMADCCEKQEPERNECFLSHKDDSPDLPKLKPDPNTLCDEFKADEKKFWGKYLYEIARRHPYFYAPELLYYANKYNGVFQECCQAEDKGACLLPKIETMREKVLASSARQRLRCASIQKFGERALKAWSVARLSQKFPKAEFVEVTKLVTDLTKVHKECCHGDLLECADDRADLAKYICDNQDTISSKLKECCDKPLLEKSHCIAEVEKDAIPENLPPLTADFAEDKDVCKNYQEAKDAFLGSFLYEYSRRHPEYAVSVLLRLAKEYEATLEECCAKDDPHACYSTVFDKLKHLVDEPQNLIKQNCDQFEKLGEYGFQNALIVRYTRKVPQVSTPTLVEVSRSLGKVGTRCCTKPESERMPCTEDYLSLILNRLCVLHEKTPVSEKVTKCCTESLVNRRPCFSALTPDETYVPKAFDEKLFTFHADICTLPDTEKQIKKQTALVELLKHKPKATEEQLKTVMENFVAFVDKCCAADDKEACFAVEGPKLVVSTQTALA

Compound: CC(C)NCC(O)c1ccc(OC(=O)C(C)(C)C)c(OC(=O)C(C)(C)C)c1 (racemic)
- cardiovascular effect (dog): did not produce any unique cardiovascular effect

Compound: CNCC(O)c1ccc(O)c(O)c1 (racemic) [(R,S)-Epinephrine]
- IC50 [1]: 17 ± 1.1 µM
- Imax [1]: 82%

Compound: CC(C)NCC(O)c1ccc(O)c(O)c1 (racemic) [(R,S)-isoproterenol]
- duration of reduction in ocular tension (human eye; [12]): at least 12 h
- reduction in ocular tension (human eye; [12]): 20%

Compound: CNCC(O)c1ccc(OC(=O)C(C)(C)C)c(OC(=O)C(C)(C)C)c1 (racemic) [Dipivefrin, (R,S)-epinephrine dipivalate]
- enhancement of ocular absorption [2]: 17 time

Compound: CC(C)NC[C@H](O)c1ccc(O)c(O)c1 [(R)-Isoproterenol]
- IC50 [3]: 18.1 ± 1.1 µM
- Imax [1]: 86%

Compound: NC[C@H](O)c1ccc(O)c(O)c1 [(R)-Norepinephrine]
- IC50 [1]: 39.6 ± 3.4 µM
- Imax [1]: 92%

Compound: CC(C)NC[C@@H](O)c1ccc(O)c(O)c1.O=C(O)C(O)C(O)C(=O)O [(S)-Isoproterenol, (S)-isoproterenol bitartrate]
- effect on weight gain/loss ([4]; diabetic rats, Group IV vs Group III): no effect
- effect on weight gain/loss ([4]; non-diabetic rats, Group II vs Group I): no effect
- protective effect against H2O2 oxidative stress (PC12 cells [5]): did not show any protective effect
- effect on blood glucose level and diabetes (Groups I vs II and III vs IV): does not affect the blood glucose level
- ocular adverse effects (human eyes; eye drop, 10%, human eyes): only brief mild conjunctival hyperemia and irritation
- effects on blood pressure and pulse rate [6]: only slight and transient effects on blood pressure and pulse rate
- IC50 [1]: 16.8 ± 0.8 µM
- Imax [1]: 81%

Compound: NC[C@@H](O)c1ccc(O)c(O)c1 [(S)-Norepinephrine]
- IC50 [1]: 40.3 ± 4.7 µM
- Imax [1]: 93%

Compound: CC(C)NC[C@@H](O)c1ccc(O)c(O)c1.Cl [(S)-isoproterenol HCl, (S)-isoproterenol hydrochloride]
- ocular adverse effects (human eyes; topical administration of 20%, persisted for several hours): marked conjunctival hyperemia and mild miosis
- effect on intra-ocular pressure (human eye; topical administration of up to 20%, human eye): did not show any indication to lower intra-ocular pressure

Compound: CC(C)NC[C@@H](O)c1ccc(OC(=O)C(C)(C)C)c(OC(=O)C(C)(C)C)c1.Cl [(S)-isoproterenol dipivalate, (S)-isoproterenol dipivalate hydrochloride]
- tolerance of PC12 cells (PC12 cells [7]; longer incubation up to 24 h, minimum media (data not shown)): 500 µM
- concentration PC12 cells were tolerant to (PC12 cells [7]; short incubation up to 2 hr): up to 500 μM
- Time entered in level 4 ([8]; Left eye): 14.5 week and 19.5 week and 19 week (2×) and 16 week and 18.5 week and 20.5 week (2×) and 8 week and 22 week
- Time stayed in level 0 ([8]; Left eye): 8 week (6×) and 9 week (3×) and 14 week and 18 week and >30 week (4×) and >23 week and 12 week
- Time stayed in level 1 ([8]; Left eye): 1 week (4×) and 2.5 week and 2 week (3×) and 0.5 week (2×) and 3 week (2×)
- Time stayed in level 2 ([8]; Left eye): 2 week (5×) and 1 week and 1.5 week (2×) and 0.5 week (2×) and 2.5 week and 5 week
- Time stayed in level 3 ([8]; Left eye): 2.5 week and 7.5 week and 5.5 week and 3 week and 3.5 week and 7 week and 8 week and 4 week and 5 week and 6.5 week
- Time entered in level 4 ([8]; Right eye): 14.5 week and 19.5 week and 19 week (3×) and 15.5 week and 20.5 week (2×) and 8 week and 22 week
- Time stayed in level 0 ([8]; Right eye): 8 week (7×) and 13 week and 18.5 week (2×) and 17 week and >30 week (2×) and 18 week and 14 week and 11.5 week and 12 week
- Time stayed in level 1 ([8]; Right eye): 1 week (7×) and 0.5 week (5×) and 2.5 week and 2 week and 0 week
- Time stayed in level 2 ([8]; Right eye): 2 week (7×) and 0.5 week (2×) and 1.5 week and 1 week (2×) and 5 week and 2.5 week (2×)
- Time stayed in level 3 ([8]; Right eye): 2.5 week and 7.5 week and 7 week (2×) and 4 week (2×) and 3 week and 8 week and 6.5 week (2×)
- Time stayed in level 0 (cataract initiation), Av ± STD [8]: 15.0±8.3 week
- Time stayed in level 0 (cataract initiation), Av ± STD ([8]; listed as drug): >15.0 ± 8.3 week
- Time stayed in level 1, Av ± STD [8]: 1.24 ± 0.82 week
- Time stayed in level 2, Av ± STD [8]: 1.88 ± 1.09 week
- Time stayed in level 3, Av ± STD [8]: 5.4 ± 1.9 week
- Time stayed in level 1, Av ± STD ([8]; listed as prodrug): 1.24±0.82 week
- Time stayed in level 2, Av ± STD ([8]; listed as prodrug): 1.88±1.09 week
- Time stayed in level 3, Av ± STD ([8]; listed as prodrug): 5.4±1.9 week
- percentage of eyes initiating cataract ([8]; eyes initiating at 8.6±1.2 weeks): 53%
- percentage of eyes initiating cataract ([8]; eyes initiating at 17.1±3.1 weeks): 26%
- percentage of eyes initiating cataract ([8]; eyes initiating at >30 weeks (except one eye >23 weeks)): 21%
- time of cataract initiation ([8]; first subgroup, 53% of the eyes): 8.6±1.2 weeks
- time of cataract initiation ([8]; second subgroup, 26% of the eyes): 17.1±3.1 weeks
- time of cataract initiation ([8]; third subgroup, 21% of the eyes): > 30 weeks
- protective effect against H2O2 oxidative stress (PC12 cells [5]): did not show any protective effect
- degradation on storage [9]: No degradation
- concentration with no visibly noticed cytotoxicity [10]: up to 25 mM
- blood glucose level (Group II, non-diabetic rats receiving prodrug, 27 week period): 5.1 ± 0.4 mM
- blood glucose level (Group IV, diabetic rats receiving prodrug, stabilized level): 27 ± 5 mM

Compound: CC(C)NCC(O)c1ccc(O)c(O)c1 (centres unmarked) [isoproterenol]
- pKa [11]: 8.72 ± 0.05

Compound: (R)-Epinephrine
- IC50 [1]: 15.5 ± 1.7 µM
- Imax [1]: 83%

Source: patent US20110060045A1, “ANTI-DIABETIC CATARACT COMPOUNDS AND THEIR USES” (NATIONAL RESEARCH COUNCIL OF CANADA, priority 2006, published 2011)
